Results taken from patent US4481203A, “Composition containing 1-(n-hexylcarbamoyl)-5-fluorouracil and uracil” (priority 1977, dated 1984).
Where two headings read alike, the source gives them in different places.

Experiments:
sarcoma 180 [1] = assay: Therapeutic effect on sarcoma 180 transplanted in mice (Table 5); type: in vivo, male mice of ICR strain; conditions: oral, 14400 min
Protocol: (§1) (5) The anti-cancer compositions of this invention are tested in mice by the following methods to determine acute toxicity, therapeutic effect and theapeutic index.
Tissues of sarcoma 180, 2×10^6, are subcutaneously transplanted in the back of male mice of ICR strain (6 mice in each group). […] Twenty-four hours after the transplantation and during the following seven consecutive days the suspension is orally given to the animal once every day.

AH-130 [2] = assay: Effects of Preparations 1 to 8 on AH-130 (Table 4); type: in vivo, male Donryu rats
Source text: (§2) Ascites cells (5×10^6) of AH-130, are subcutaneously transplanted in the armpit of male Donryu rats weighing about 200 g (ten rats in each group). […] Twenty-four hours after the transplantation and during the following seven consecutive days the suspension is orally given to the animal once every day at the dose listed in Table 2. On the 10th day after the transplantation, the tumor is removed from the body and weighed to calculate the average weight (T) of the tumors in the group to which the composition has been given and the corresponding weight (C) in the control group to determine the ratio T/C.
(4) Compositions formulated according to Preparations 1 to 8 given above are tested by the foregoing method for effects on AH-130.

AH-130 [3] = assay: Anti-cancer effect (T/C) on subcutaneously transplanted AH-130, oral administration (Table 2); type: in vivo, male Donryu rats
Source text: (2) Determination of effects
as §2

sarcoma 180 [4] = assay: Therapeutic index (LD50/ED50) in mice (Table 5); type: in vivo, male mice of ICR strain; conditions: oral
Source text: The LD50 and ED50 values obtained above are used to determine the therapeutic index (LD50 /ED50).

in vivo = type: in vivo; conditions: mouse, in vivo, po, mice
Protocol: as §1
Male mice of ICR strain weighing 22±1 g are used, 5 mice in each group. […] Over the following period of three weeks the mice are checked every day for poisoning, body weight and mortality. The LD50 is determined according to the up-and-down method 3 weeks after the administration.

[5] = uracil (b)/(a) mol ratio 0, as amount of 5-fluorouracil (a)
[6] = uracil (b)/(a) mol ratio 2.5, as amount of 5-fluorouracil (a)
[7] = uracil (b)/(a) mol ratio 10, as amount of 5-fluorouracil (a)
[8] = Rattus norvegicus, po, 240 h; read-out: Anti-cancer effect (T/C)
[9] = oral, 5-fluorouracil (a) 0.5 m.mol/kg + uracil 0.1 m.mol/kg
[10] = oral, 5-fluorouracil (a) 0.5 m.mol/kg + uracil 0.2 m.mol/kg
[11] = oral, 5-fluorouracil (a) 0.5 m.mol/kg + uracil 0.5 m.mol/kg
[12] = oral, 5-fluorouracil (a) 0.5 m.mol/kg + uracil 1 m.mol/kg
[13] = Rattus norvegicus, po, 240 h, read-out: Anti-cancer effect (T/C)

Compound: O=c1[nH]c(=O)n(C2CCCO2)cc1F (stereo not shown) [Compound 2, 1-(2-Tetrahydrofuryl)-5-fluorouracil, reference compound]
- ED50 (sarcoma 180 [1]; [5]): 140 mg/kg
- ED50 (sarcoma 180 [1]; [6]): 20 mg/kg
- ED50 (sarcoma 180 [1]; [7]): 11 mg/kg
- Anti-cancer effect (control) (T/C) (AH-130 [2]; I.v., Compd. 2 100 mg/kg, formulated as Preparation 7 but no uracil): 0.61
- Anti-cancer effect (control) (T/C) (AH-130 [2]; oral, Compd. 2 100 mg/kg, formulated as Preparation 1 but no uracil): 0.68
- Anti-cancer effect (control) (T/C) (AH-130 [2]; via anus, Compd. 2 100 mg/kg, formulated as Preparation 8 but no uracil): 0.51
- response vs control in vivo at 500 µmol/kg (AH-130 [3]; [8]): 65%
- Anti-cancer effect (T/C) (AH-130 [3]; oral, 5-fluorouracil (a) 0.5 m.mol/kg + uracil 0.05 m.mol/kg): 0.49
- Anti-cancer effect (T/C) (AH-130 [3]; [9]): 0.30
- Anti-cancer effect (T/C) (AH-130 [3]; [10]): 0.23
- Anti-cancer effect (T/C) (AH-130 [3]; [11]): 0.17
- Anti-cancer effect (T/C) (AH-130 [3]; [12]): 0.06

Compound: O=c1c(F)cn(C2CCCO2)c(=O)n1C1CCCO1 (stereo not shown) [Compound 3, 1,3-bis(2-Tetrahydrofuryl)-5-fluorouracil]
- ED50 (sarcoma 180 [1]; [5]): 118 mg/kg
- ED50 (sarcoma 180 [1]; [6]): 63 mg/kg
- ED50 (sarcoma 180 [1]; [7]): 27 mg/kg
- Therapeutic index (LD50/ED50) (sarcoma 180 [4]; uracil (b)/(a) mol ratio 0): 18.8
- Therapeutic index (LD50/ED50) (sarcoma 180 [4]; uracil (b)/(a) mol ratio 2.5): 30.1
- Therapeutic index (LD50/ED50) (sarcoma 180 [4]; uracil (b)/(a) mol ratio 10): 42.9
- Anti-cancer effect (control) (T/C) (AH-130 [2]; oral, Compd. 3 120 mg/kg, formulated as Preparation 2 but no uracil): 0.25
- Anti-cancer effect (control) (T/C) (AH-130 [2]; oral, Compd. 3 120 mg/kg, formulated as Preparation 4 but no uracil): 0.25
- response vs control in vivo at 500 µmol/kg (AH-130 [3]; [8]): 24%
- Anti-cancer effect (T/C) (AH-130 [3]; [10]): 0.18
- Anti-cancer effect (T/C) (AH-130 [3]; [11]): 0.12
- Anti-cancer effect (T/C) (AH-130 [3]; [12]): 0.08
- LD50 at 504 h (in vivo; [5]): 2220 mg/kg
- LD50 at 504 h (in vivo; [6]): 1890 mg/kg
- LD50 at 504 h (in vivo; [7]): 1160 mg/kg

Compound: CCCCCCNC(=O)n1cc(F)c(=O)[nH]c1=O [Compound 4, 1-(n-Hexylcarbamoyl)-5-fluorouracil]
- ED50 (sarcoma 180 [1]; [5]): 60 mg/kg
- ED50 (sarcoma 180 [1]; [6]): 24 mg/kg
- ED50 (sarcoma 180 [1]; [7]): 20 mg/kg
- Therapeutic index (LD50/ED50) (sarcoma 180 [4]; uracil (b)/(a) mol ratio 0): 21.0
- Therapeutic index (LD50/ED50) (sarcoma 180 [4]; uracil (b)/(a) mol ratio 2.5): 40.8
- Therapeutic index (LD50/ED50) (sarcoma 180 [4]; uracil (b)/(a) mol ratio 10): 32.2
- Anti-cancer effect (control) (T/C) (AH-130 [2]; oral, Compd. 4 50 mg/kg, formulated as Preparation 3 but no uracil): 0.45
- response vs control in vivo at 500 µmol/kg (AH-130 [3]; [13]): 39%
- Anti-cancer effect (T/C) (AH-130 [3]; [10]): 0.21
- Anti-cancer effect (T/C) (AH-130 [3]; [11]): 0.15
- Anti-cancer effect (T/C) (AH-130 [3]; [12]): 0.12
- LD50 at 504 h (in vivo; [5]): 1260 mg/kg
- LD50 at 504 h (in vivo; [6]): 980 mg/kg
- LD50 at 504 h (in vivo; [7]): 644 mg/kg

Compound: CCOCn1cc(F)c(=O)[nH]c1=O [Compound 5, 1-Ethoxymethyl-5-fluorouracil]
- ED50 (sarcoma 180 [1]; [6]): 26 mg/kg
- ED50 (sarcoma 180 [1]; [7]): 13 mg/kg
- Anti-cancer effect (control) (T/C) (AH-130 [2]; oral, Compd. 5 100 mg/kg, formulated as Preparation 5 but no uracil): 0.72
- response vs control in vivo at 500 µmol/kg (AH-130 [3]; [8]): 68%
- Anti-cancer effect (T/C) (AH-130 [3]; [10]): 0.33
- Anti-cancer effect (T/C) (AH-130 [3]; [11]): 0.19
- Anti-cancer effect (T/C) (AH-130 [3]; [12]): 0.08
- LD50 at 504 h (in vivo; [5]): 1000 mg/kg
- LD50 at 504 h (in vivo; [6]): 446 mg/kg
- LD50 at 504 h (in vivo; [7]): 191 mg/kg

Compound: O=c1[nH]cc(F)c(=O)n1C1CCCO1 (stereo not shown) [Compound 7, 3-(2-Tetrahydrofuryl)-5-fluorouracil]
- ED50 (sarcoma 180 [1]; [5]): 78 mg/kg
- ED50 (sarcoma 180 [1]; [6]): 29 mg/kg
- ED50 (sarcoma 180 [1]; [7]): 16 mg/kg
- Therapeutic index (LD50/ED50) (sarcoma 180 [4]; uracil (b)/(a) mol ratio 0): 13.1
- Therapeutic index (LD50/ED50) (sarcoma 180 [4]; uracil (b)/(a) mol ratio 2.5): 23.7
- Therapeutic index (LD50/ED50) (sarcoma 180 [4]; uracil (b)/(a) mol ratio 10): 23.8
- response vs control in vivo at 500 µmol/kg (AH-130 [3]; [8]): 20%
- Anti-cancer effect (T/C) (AH-130 [3]; [9]): 0.12
- Anti-cancer effect (T/C) (AH-130 [3]; [11]): 0.06
- LD50 at 504 h (in vivo; [5]): 1020 mg/kg
- LD50 at 504 h (in vivo; [6]): 687 mg/kg
- LD50 at 504 h (in vivo; [7]): 381 mg/kg

Compound: O=c1[nH]c(=O)n(S(=O)(=O)c2ccccc2)cc1F [Compound 8, 1-Benzenesulfonyl-5-fluorouracil]
- ED50 (sarcoma 180 [1]; [5]): 234 mg/kg
- ED50 (sarcoma 180 [1]; [6]): 88 mg/kg
- ED50 (sarcoma 180 [1]; [7]): 48 mg/kg
- response vs control in vivo at 500 µmol/kg (AH-130 [3]; [8]): 48%
- Anti-cancer effect (T/C) (AH-130 [3]; [9]): 0.39
- Anti-cancer effect (T/C) (AH-130 [3]; [11]): 0.21
- LD50 at 504 h (in vivo; [5]): 1170 mg/kg
- LD50 at 504 h (in vivo; [6]): 973 mg/kg
- LD50 at 504 h (in vivo; [7]): 427 mg/kg

Compound: CCOC(=O)n1cc(F)c(=O)[nH]c1=O [Compound 9, 1-Ethoxycarbonyl-5-fluorouracil]
- ED50 (sarcoma 180 [1]; [5]): 101 mg/kg
- ED50 (sarcoma 180 [1]; [6]): 39 mg/kg
- ED50 (sarcoma 180 [1]; [7]): 28 mg/kg
- Therapeutic index (LD50/ED50) (sarcoma 180 [4]; uracil (b)/(a) mol ratio 0): 3.3
- Therapeutic index (LD50/ED50) (sarcoma 180 [4]; uracil (b)/(a) mol ratio 2.5): 6.9
- Therapeutic index (LD50/ED50) (sarcoma 180 [4]; uracil (b)/(a) mol ratio 10): 6.4
- response vs control in vivo at 500 µmol/kg (AH-130 [3]; [13]): 22%
- Anti-cancer effect (T/C) (AH-130 [3]; [11]): 0.06
- LD50 at 504 h (in vivo; [5]): 332 mg/kg
- LD50 at 504 h (in vivo; [6]): 269 mg/kg
- LD50 at 504 h (in vivo; [7]): 179 mg/kg

Compound: CCCC(=O)n1cc(F)c(=O)[nH]c1=O [Compound 10, 1-(n-Butyryl)-5-fluorouracil]
- ED50 (sarcoma 180 [1]; [5]): 111 mg/kg
- ED50 (sarcoma 180 [1]; [6]): 37 mg/kg
- ED50 (sarcoma 180 [1]; [7]): 28 mg/kg
- response vs control in vivo at 500 µmol/kg (AH-130 [3]; [8]): 38%
- Anti-cancer effect (T/C) (AH-130 [3]; [11]): 0.11

Compound: CCCCn1cc(F)c(=O)[nH]c1=O [Compound 11, 1-(n-Butyl)-5-fluorouracil]
- ED50 (sarcoma 180 [1]; [5]): 186 mg/kg
- ED50 (sarcoma 180 [1]; [6]): 88 mg/kg
- ED50 (sarcoma 180 [1]; [7]): 49 mg/kg
- Therapeutic index (LD50/ED50) (sarcoma 180 [4]; uracil (b)/(a) mol ratio 0): 4.7
- Therapeutic index (LD50/ED50) (sarcoma 180 [4]; uracil (b)/(a) mol ratio 2.5): 8.2
- Therapeutic index (LD50/ED50) (sarcoma 180 [4]; uracil (b)/(a) mol ratio 10): 7.3
- response vs control in vivo at 500 µmol/kg (AH-130 [3]; [8]): 77%
- Anti-cancer effect (T/C) (AH-130 [3]; [11]): 0.53
- LD50 at 504 h (in vivo; [5]): 867 mg/kg
- LD50 at 504 h (in vivo; [6]): 723 mg/kg
- LD50 at 504 h (in vivo; [7]): 358 mg/kg

Compound: Fc1cnc(OCc2ccccc2)nc1OCc1ccccc1 [Compound 12, 2,4-Dibenzyl-5-fluorouracil]
- ED50 (sarcoma 180 [1]; [5]): 362 mg/kg
- ED50 (sarcoma 180 [1]; [6]): 224 mg/kg
- ED50 (sarcoma 180 [1]; [7]): 163 mg/kg
- response vs control in vivo at 500 µmol/kg (AH-130 [3]; [8]): 55%
- Anti-cancer effect (T/C) (AH-130 [3]; [11]): 0.41

Compound: O=c1cc[nH]c(=O)[nH]1 [uracil (b), uracil]
- effect (T/C) (AH-130 [3]; oral, uracil (b) alone 1 m.mol/kg): 0.96
- anti-cancer effect of uracil itself (AH-130 [3]; uracil (b) itself): no anti-cancer effect whatever
